Data on 64 molecules can be found in patent publication US20100022559A1, “BISOXIMES AS FUNGICIDES” (BAYER CROPSCIENCE AG, priority 2006, published 2010).

One data set in a line: logP determination by HPLC on a reversed-phase column (C 18), EEC Directive 79/831 Annex V.A8. The settings on record: method marked [a] in Table 1. The class given is physicochemical. The protocol:
The stated logP values were determined in accordance with EEC Directive 79/831 Annex V.A8 by HPLC (high performance liquid chromatography) on a reversed-phase column (C 18). Temperature: 43° C.
Regarding `CCC1=NOC(CON=C(c2cccc(C)n2)C(C)C)(CON=C(c2cccc(C)n2)C(C)C)C1` (stereo not shown) [compound 595], the logP was 4.79^[a]. For `CCC1=NOC(CON=C(c2cccc(C)n2)C2CC2)(CON=C(c2cccc(C)n2)C2CC2)C1` (stereo not shown) [compound 652], the logP is 2.95^[a]. Consider `Cc1cccnc1C(=NOCC(C)CON=C(c1ccccc1)c1ncccc1C)c1ccccc1` (stereo not shown) [compound 658], for which the logP is 4.54^[a].

The same data set, now with this note: method marked [b] in Table 1.
On to `CC(=NOCC(C)CON=C(C)c1ccc2cccc(C)c2n1)c1ccc2cccc(C)c2n1` (stereo not shown) [compound 687], for which the logP was 7.36^[b]. Regarding `C=C(CON=C(C)c1cccc(C)n1)CON=C(c1cccc(C)n1)C1CC1` (single isomer, unassigned) [compound 537], the logP is 3.46^[b] (isomer B). `N/C(=N\OCc1ccccc1CO/N=C(\N)c1nc(C2CC2)cc(C2CC2)n1)c1nc(C2CC2)cc(C2CC2)n1` [compound 711]: the logP is 3.85^[b]. On the same count and under the same terms, the same measure for `CC(C)=CC1=NOC(CO/N=C(\C)c2ccc(C)c(C)n2)(CO/N=C(\C)c2ccc(C)c(C)n2)C1` [compound 636]: 3.46^[b]; for `CCC(CON=C(C)c1nc(C)ccc1C)CON=C(C)c1nc(C)ccc1C` (single isomer, unassigned) [compound 750]: 2.57^[b].

As for `CCCC(=NOCC1(CON=C(CCC)c2cccc(C)n2)CC(c2ccccc2Cl)=NO1)c1cccc(C)n1` (stereo not shown) [compound 623], the logP was 6.51^[b]. For `CC(=NOCC1(CON=C(C)c2ccc(C)c(C)n2)CC(C(C)C)=NO1)c1ccc(C)c(C)n1` (stereo not shown) [compound 627], the logP was 3.06^[b]. For the molecule `CC(=NOCc1ccc(CON=C(C)c2ccccn2)cc1)c1ccccn1` [compound 734], the logP is 3.76^[b]. With `Cc1nc(/C(N)=N/OCc2ccc(CO/N=C(\N)c3nc(C)c4c(n3)CCCC4)cc2)nc2c1CCCC2` [compound 717], the logP was 3.09^[b]. Consider `C=C(CON=C(C)c1cccc(C)n1)CON=C(c1cccc(C)n1)C(C)C` (single isomer, unassigned) [Compound 672], for which the logP is 3.87^[b] (isomer A). On to `CC1=NOC(CON=C(C)c2ccc(C)c(C)n2)(CON=C(C)c2ccc(C)c(C)n2)C1` (stereo not shown) [compound 626], for which the logP was 2.07^[b]. As for `Cc1nc(/C(N)=N/OCc2cccc(CO/N=C(\N)c3nc(C)c4c(n3)CCCC4)c2)nc2c1CCCC2` [compound 712], the logP is 3.09^[b]. Still for that read-out and setting: the same measure for `CC(=NOCC1(CON=C(C)c2cccc(C)n2)CCCCC1)c1cccc(C)n1` [Compound 561]: 6.09^[b]; for `C=C(CON=Cc1cccc(C)n1)CON=Cc1cccc(C)n1` (single isomer, unassigned) [compound 664]: 2.13^[b] (isomer A).

Still in this data set, the particulars now being: method marked [c] in Table 1.
On to `CC(=NOCC(C)CON=C(C)c1ccc2cccc(C)c2n1)c1ccc2cccc(C)c2n1` (stereo not shown) [compound 687], for which the logP is 7.36^[c].

On to `CCC(CON=C(C)c1nc(C)ccc1C)CON=C(C)c1nc(C)ccc1C` (single isomer, unassigned) [compound 750], for which the logP was 4.46^[c].

As for `CC(=NOCC1(CON=C(C)c2cccc(C)n2)CCCCC1)c1cccc(C)n1` [Compound 561], the logP is 7.15^[c].

The data set is the same for the next values; noted with them: method marker [a] (footnote not shown); isomer A / isomer B / isomer mixture as noted in the cell.
Consider `CCOC(=O)C(=NOCCCON=C(C(=O)OCC)c1cccc(C)n1)c1cccc(C)n1` [compound 76], for which the logP is 4.31^[a]. Same read-out and setting: the same measure for `CCC(=NOCCCON=C(CC)c1cccc(C)n1)c1cccc(C)n1` [Compound 90]: 4.44^[a]; for `CCC(=NOCC(C)CON=C(CC)c1ccc(C)c(C)n1)c1ccc(C)c(C)n1` (stereo not shown) [Compound 235]: 4.88^[a].

Staying with this data set, now noted: method marker [b]; isomer A / isomer B / isomer mixture as noted in the cell.
Consider `C=C(CON=C(C)c1ccc(Cl)nc1)CON=C(C)c1ccc(Cl)nc1` [Compound 57], for which the logP is 4.38^[b]. As to `CC(=NOCC1(CON=C(C)c2cccc(C)n2)COC1)c1cccc(C)n1` [compound 19], the logP was 2.45^[b].

Consider `CC(=NOCCON=C(C)c1cc(C)ccn1)c1cc(C)ccn1` [compound 34], for which the logP is 1.71^[b].

For the molecule `C=C(CON=C(C)c1nccc(OCC)n1)CON=C(C)c1nccc(OCC)n1` [compound 252], the logP was 3.42^[b]. For the molecule `C=C(CO/N=C(\N)c1ncc(F)cc1F)CO/N=C(\N)c1ncc(F)cc1F` [compound 45], the logP is 2.42^[b]. For the molecule `CC(=NOCCON=C(C)c1nc(C)cs1)c1nc(C)cs1` [compound 52], the logP is 3.63^[b].

Regarding `CC(=NOCON=C(C)c1ccccn1)c1ccccn1` [Compound 59], the logP is 2.23^[b]. Still for that read-out and setting: the same measure for `CC(=NOCC(C)(C)CON=C(C)c1cccc(C)n1)c1cccc(C)n1` (mixture of isomers) [Compound 250]: 4.74^[b]; for `C=C(CON=C(C)c1cccc(C)n1)CON=C(N)c1nc(C)cs1` [compound 193]: 2.70^b]. Consider `C=C(CO/N=C(\N)c1nc(C)c(Cl)c(C)n1)CO/N=C(\N)c1nc(C)c(Cl)c(C)n1` [compound 46], for which the logP is 2.84^[b]. Consider `C=C(CON=C(C)c1cccc(C)n1)CON=C(N)c1nc(C)cc(OC)n1` [Compound 186], for which the logP was 2.11^[b]. Turning to `COCc1nc(/C(N)=N/OCO/N=C(\N)c2nc(COC)c(C)c(COC)n2)nc(COC)c1C` [compound 40], the logP is 1.35^[b]. Take `CC(=NOCCON=C(C)c1nc(C)c(C)s1)c1nc(C)c(C)s1` [compound 50]: the logP is 4.35^[b].

The data set is the same for the next values; noted with them: reversed-phase HPLC column (C 18); HCO2H; HPLC reversed-phase column (C 18), 43° C.; read-out: logP (HCO2H).
`C/C(=N\OCC(C)(C)CCl)c1cccc(C)n1` [VI-1, (1E)-1-(6-methylpyridin-2-yl)ethanone O-(3-chloro-2,2-dimethylpropyl)oxime]: the chromatographic logP was 3.76. On to `CC(CON1C(=O)c2ccccc2C1=O)CON1C(=O)c2ccccc2C1=O` [IX-1, 2,2′-[(2-methylpropane-1,3-diyl)bis(oxy)]bis(1H-isoindole-1,3(2H)-dione)], for which the chromatographic logP came out at 2.87.

Still in this data set, the particulars now being: value marked [a].
For the molecule `CC(=NOC1CCC(ON=C(C)c2cccc(C3CC3)n2)C1)c1cccc(C2CC2)n1` (mixture of isomers) [compound 813], the logP was 7.36^[a]. Same read-out and setting: the same measure for `C=C(CON=C(Cl)c1cc(C)cc(C)n1)CON=C(Cl)c1cc(C)cc(C)n1` [compound 795]: 4.62^[a]. `C=C(CON=C(c1cccc(C)n1)C(C)C)CON=C(c1cccc(C)n1)C(C)C` (single isomer, unassigned) [compound 274]: the logP is 4.87^[a] (isomer B). As to `CC(=NOCC(C)CON=C(C)c1ccc2c(n1)CCCC2)c1ccc2c(n1)CCCC2` (stereo not shown) [Compound 304], the logP was 4.69^[a].

Staying with this data set, now noted: value marked [b].
On to `CCCC(=NOCC(C)CON=C(C)c1cccc(C)n1)c1cccc(C)n1` (stereo not shown) [Compound 427], for which the logP is 5.31^[b]. On the same count and under the same terms, under `CCC(=NOCCCCON=C(C)c1cccc(C)n1)c1cccc(C)n1` [compound 333] stands 4.10^[b]. `CC(=NOCCCCCCON=C(C)c1cccc(C)n1)c1ccc(Cl)cc1` [compound 458]: the logP is 6.58^[b].

`CC(=NOCC(C)(C)CON=C(C)c1cc(C)cc(C)n1)c1cccc(C)n1` [Compound 487]: the logP was 3.33^[b].

With `CC(=NOCC1(CON=C(C)c2cccc(C)n2)CCC1)c1cccc(C)n1` [Compound 289], the logP was 4.77^[b].

Consider `C=C(CON=C(C)c1cccc(C)n1)CON=C(CC(C)C)c1cccc(C)n1` [compound 356], for which the logP is 5.52^[b]. For `CC(=NOCCCCON=C(C)c1cccc(C)n1)c1cncc(C)c1` [compound 337], the logP is 2.20^[b]. As to `CC(=NOCC(C)CON=C(CC(C)C)c1ncccc1C)c1cccc(C)n1` (stereo not shown) [compound 422], the logP was 4.51^[b]. Consider `C=C(CON=C(C)c1cccc(C)n1)CON=C(C)c1ccc(Cl)s1` (single isomer, unassigned) [compound 473], for which the logP is 4.91^[b] (isomer B). In the case of `CC(=NOCC(C)(C)CON=C(C)c1cccc2ccccc12)c1cccc(C)n1` [compound 417], the logP is 5.90^[b].

Consider `CC(=NOCCCCCCON=C(C)c1cccc(C)n1)c1ccccn1` [compound 388], for which the logP was 4.41^[b]. Same read-out and setting: under `CC(=NOCC(C)CON=C(C)c1cccc(CC(C)C)n1)c1cccc(C)n1` (stereo not shown) [Compound 423] stands 6.51^[b]; under `CC(=NOCCCCCCON=C(C)c1cccnc1C)c1cccc(C)n1` [compound 461], 2.27^[b].

On to `CCc1nc(C(C)=NOCC(C)CON=C(C)c2ccc(C)c(CC)n2)ccc1C` (stereo not shown) [Compound 310], for which the logP was 6.48^[b]. On to `CC(=NOCCCCON=C(C)c1cncc(C)n1)c1cccc(C)n1` [compound 453], for which the logP is 1.88^[b]. For `C=C(CON=C(C)c1cncc(C)c1)CON=C(C)c1cccc(C)n1` [compound 361], the logP was 2.20^[b]. With `C=C(CON=C(C)c1cccnc1)CON=C(C)c1cccc(C)n1` [compound 407], the logP was 2.15^[b].

In the case of `C=C(CON=C(C)c1ccc2c(c1)CC(C)O2)CON=C(C)c1cccc(C)n1` (stereo not shown) [compound 468], the logP is 4.85^[b]. Consider `CCCc1cccc(C(C)=NOCC(C)(C)CON=C(C)c2cccc(C)n2)n1` [compound 489], for which the logP is 6.36^[b]. Same read-out and setting: the same measure for `COc1cc(OC)nc(C(C)=NOCC(C)CON=C(C)c2nc(OC)cc(OC)n2)n1` (stereo not shown) [Compound 272]: 4.49^[b].

As for `CC(=NOCCCCCCON=C(C)c1cccc(C)n1)c1cc(C)ccn1` [compound 386], the logP is 3.94^[b]. Still for that read-out and setting: the same measure for `C=C(CON=C(C)c1cccc(C)n1)CON=C(CCC)c1ncccc1C` (single isomer, unassigned) [compound 534]: 3.65^[b] (isomer A).

Take `CCC(C)(CON=C(C)c1cccc(C)n1)CON=C(C)c1cccc(C)n1` (stereo not shown) [Compound 788]: the logP is 5.73^[b]. Still for that read-out and setting: under `CC(=NOC(C)CC(C)ON=C(C)c1ccc(C)c(C)n1)c1ccc(C)c(C)n1` (stereo not shown) [Compound 322] stands 3.4^[b]. For the molecule `CCCC(CON=C(C)c1ccc(C)c(C)n1)CON=C(C)c1ccc(C)c(C)n1` (stereo not shown) [Compound 316], the logP is 4.48^[b].

The same data set, now with this note: value marked [c].
As for `CCC(C)(CON=C(C)c1cccc(C)n1)CON=C(C)c1cccc(C)n1` (stereo not shown) [Compound 788], the logP was 6.47^[c]. As for `CC(=NOC(C)CC(C)ON=C(C)c1ccc(C)c(C)n1)c1ccc(C)c(C)n1` (stereo not shown) [Compound 322], the logP is 6.79^[c]. With `CCCC(CON=C(C)c1ccc(C)c(C)n1)CON=C(C)c1ccc(C)c(C)n1` (stereo not shown) [Compound 316], the logP was 7.23^[c].
